The values below come from patent US10538555B2, “Macrocyclic inhibitors of the PD-1/PD-L1 and CD80(B7-1)/PD-L1 protein/protein interactions” (BRISTOL-MYERS SQUIBB COMPANY, priority 2014, dated 2020).

Like-named read-outs stand apart in the source and are kept apart here. *1 amine or outer side, *2 acyl side, *3 side chain or, on linkers, in order; H or OH if unused. Where a SMILES comes first, the peptide text is derived from it. Bridges are numbered along the chain shown (N, C = ends). [ ]: non-standard residue; d: D form. ξ: configuration not given here. Phe(3,4,5-F3) = N[C@@H](Cc1cc(F)c(F)c(F)c1)C(=O)O; Phe(3,4-F2) = N[C@@H](Cc1ccc(F)c(F)c1)C(=O)O; d(cisHyp) = O=C(O)[C@H]1C[C@@H](O)CN1; NMeF = CN[C@@H](Cc1ccccc1)C(=O)O; X1 = O=C([C@H]1COCCN1[*:1])[*:2]; dNMeF = CN[C@H](Cc1ccccc1)C(=O)O; dHyp = O=C(O)[C@H]1C[C@H](O)CN1; NMeNle = CCCC[C@H](NC)C(=O)O; ξY = NC(Cc1ccc(O)cc1)C(=O)O; Orn = NCCC[C@H](N)C(=O)O; Dab = NCC[C@H](N)C(=O)O

The target in the test is T1, Human PD-L1/PD-1 (Homo sapiens, UniProt Q9NZQ7).
T1 construct: TVMV protease cleavage site (C); made in house; host or cells: HEK293T cells
T1 sequence (Q9NZQ7 with tags, fused parts or gaps): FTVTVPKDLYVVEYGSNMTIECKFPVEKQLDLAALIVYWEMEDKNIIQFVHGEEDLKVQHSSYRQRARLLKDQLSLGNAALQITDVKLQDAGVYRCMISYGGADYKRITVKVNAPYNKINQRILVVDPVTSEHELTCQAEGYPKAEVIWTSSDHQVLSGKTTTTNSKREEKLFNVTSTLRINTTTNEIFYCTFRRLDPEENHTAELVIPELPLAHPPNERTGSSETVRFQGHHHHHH
Nature of the test: HTRF Human PD-L1/PD-1 binding assay (PD-1-Ig/PD-L1-His). To be noted: PD-L1-His 10 nM, PD-1-Ig 20 nM. Put shortly:
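Step 1: compound with PD-L1-His (10 nM final), 15 min. Step 2: PD-1-Ig (20 nM final), 15 min. Step 3: Eu-cryptate anti-Ig (1 nM) plus APC anti-His (20 nM), 30 min equilibration. Signal taken as 665 nm/620 nm ratio.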
On the technique in general: In TR-FRET formats the signal depends on donor and acceptor labels being close together.

Where [1] appears, read: class symbol, read-out: HTRF Human PD-L1/PD-1 Binding Assay IC50 Range.

`CCCC[C@H]1C(=O)N2C[C@H](O)C[C@@H]2C(=O)N[C@@H](CC(=O)O)C(=O)N[C@@H](C(C)C)C(=O)N(C)[C@H](Cc2ccccc2)C(=O)N[C@@H](CCCCN)C(=O)N2C[C@H](O)C[C@@H]2C(=O)N[C@@H](Cc2c[nH]c3ccccc23)C(=O)N[C@@H](Cc2ccc(O)cc2)C(=O)N[C@@H](CCCN)C(=O)N[C@H](C(=O)NCC(N)=O)CSCC(=O)N[C@@H](Cc2ccc(F)c(F)c2)C(=O)N(C)[C@@H](Cc2ccccc2)C(=O)N1C` [Example 9307] ({CH2CO}-[Phe(3,4-F2)][NMeF][NMeNle][d(cisHyp)]DV[dNMeF]K[d(cisHyp)]WY[Orn]CG-NH2; thioether N-13): under setting [1], the IC50 is 1 to 9.9 nM.

As for `CCCC[C@H]1C(=O)N2C[C@H](O)C[C@@H]2C(=O)N[C@@H](CC(=O)O)C(=O)N[C@@H](C(C)C)C(=O)N(C)[C@@H](Cc2ccccc2)C(=O)N[C@@H](CCCN)C(=O)N2C[C@H](O)C[C@@H]2C(=O)N[C@@H](Cc2c[nH]c3ccccc23)C(=O)N[C@@H](Cc2ccc(O)cc2)C(=O)N[C@@H](CCCN)C(=O)N[C@H](C(=O)NCC(N)=O)CSCC(=O)N[C@@H](Cc2ccc(F)c(F)c2)C(=O)N(C)[C@@H](Cc2ccccc2)C(=O)N1C` [Example 9308] ({CH2CO}-[Phe(3,4-F2)][NMeF][NMeNle][d(cisHyp)]DV[NMeF][Orn][d(cisHyp)]WY[Orn]CG-NH2; thioether N-13), the IC50 under setting [1] fell in the range of 1 to 9.9 nM. The same measure, in the same setting: the value for `CCCC[C@H]1C(=O)N2C[C@H](O)C[C@@H]2C(=O)N[C@@H](CC(=O)O)C(=O)N[C@@H](C(C)C)C(=O)N(C)[C@H](Cc2ccccc2)C(=O)N[C@@H](CCCN)C(=O)N2C[C@H](O)C[C@@H]2C(=O)N[C@@H](Cc2c[nH]c3ccccc23)C(=O)N[C@@H](Cc2ccc(O)cc2)C(=O)N[C@@H](CCCN)C(=O)N[C@H](C(=O)NCC(N)=O)CSCC(=O)N[C@@H](Cc2ccc(F)c(F)c2)C(=O)N(C)[C@@H](Cc2ccccc2)C(=O)N1C` [Example 9309] ({CH2CO}-[Phe(3,4-F2)][NMeF][NMeNle][d(cisHyp)]DV[dNMeF][Orn][d(cisHyp)]WY[Orn]CG-NH2; thioether N-13) was 1 to 9.9 nM; that for `CCCC[C@H]1C(=O)N2C[C@H](O)C[C@@H]2C(=O)N[C@@H](CC(=O)O)C(=O)N[C@@H](C(C)C)C(=O)N(C)[C@@H](Cc2ccccc2)C(=O)N[C@@H](CCN)C(=O)N2C[C@H](O)C[C@@H]2C(=O)N[C@@H](Cc2c[nH]c3ccccc23)C(=O)N[C@@H](Cc2ccc(O)cc2)C(=O)N[C@@H](CCCN)C(=O)N[C@H](C(=O)NCC(N)=O)CSCC(=O)N[C@@H](Cc2ccc(F)c(F)c2)C(=O)N(C)[C@@H](Cc2ccccc2)C(=O)N1C` [Example 9310] ({CH2CO}-[Phe(3,4-F2)][NMeF][NMeNle][d(cisHyp)]DV[NMeF][Dab][d(cisHyp)]WY[Orn]CG-NH2; thioether N-13) was 1 to 9.9 nM. As to `CCCC[C@H]1C(=O)N2C[C@H](O)C[C@@H]2C(=O)N[C@@H](CC(=O)O)C(=O)N[C@@H](C(C)C)C(=O)N(C)[C@H](Cc2ccccc2)C(=O)N[C@@H](CCN)C(=O)N2C[C@H](O)C[C@@H]2C(=O)N[C@@H](Cc2c[nH]c3ccccc23)C(=O)N[C@@H](Cc2ccc(O)cc2)C(=O)N[C@@H](CCCN)C(=O)N[C@H](C(=O)NCC(N)=O)CSCC(=O)N[C@@H](Cc2ccc(F)c(F)c2)C(=O)N(C)[C@@H](Cc2ccccc2)C(=O)N1C` [Example 9311] ({CH2CO}-[Phe(3,4-F2)][NMeF][NMeNle][d(cisHyp)]DV[dNMeF][Dab][d(cisHyp)]WY[Orn]CG-NH2; thioether N-13), the IC50 under setting [1] lay in the range of 1 to 9.9 nM. As for `CCCC[C@H]1C(=O)N2C[C@H](O)C[C@@H]2C(=O)N[C@@H](CC(=O)O)C(=O)N[C@@H](C(C)C)C(=O)N(C)[C@@H](Cc2ccccc2)C(=O)N[C@@H](CCC(=O)O)C(=O)N2C[C@H](O)C[C@@H]2C(=O)N[C@@H](Cc2c[nH]c3ccccc23)C(=O)N[C@@H](Cc2ccc(O)cc2)C(=O)N[C@@H](CCC(=O)O)C(=O)N[C@H](C(=O)NCC(N)=O)CSCC(=O)N[C@@H](Cc2ccc(F)c(F)c2)C(=O)N(C)[C@@H](Cc2ccccc2)C(=O)N1C` [Example 9312] ({CH2CO}-[Phe(3,4-F2)][NMeF][NMeNle][d(cisHyp)]DV[NMeF]E[d(cisHyp)]WYECG-NH2; thioether N-13), the IC50 under setting [1] is 10 to 99.9 nM.

`CCCC[C@H]1C(=O)N2C[C@H](O)C[C@@H]2C(=O)N[C@@H](CC(=O)O)C(=O)N[C@@H](C(C)C)C(=O)N(C)[C@H](Cc2ccccc2)C(=O)N[C@@H](CCC(=O)O)C(=O)N2C[C@H](O)C[C@@H]2C(=O)N[C@@H](Cc2c[nH]c3ccccc23)C(=O)N[C@@H](Cc2ccc(O)cc2)C(=O)N[C@@H](CCC(=O)O)C(=O)N[C@H](C(=O)NCC(N)=O)CSCC(=O)N[C@@H](Cc2ccc(F)c(F)c2)C(=O)N(C)[C@@H](Cc2ccccc2)C(=O)N1C` [Example 9313] ({CH2CO}-[Phe(3,4-F2)][NMeF][NMeNle][d(cisHyp)]DV[dNMeF]E[d(cisHyp)]WYECG-NH2; thioether N-13): the IC50 (read-out: HTRF Human PD-L1/PD-1 Binding Assay IC50) turned out to be 2.7 nM. On to `CCCC[C@H]1C(=O)N2C[C@H](O)C[C@@H]2C(=O)N[C@@H](CC(=O)O)C(=O)N[C@@H](C(C)C)C(=O)N(C)[C@@H](Cc2ccccc2)C(=O)N[C@@H](CC(=O)O)C(=O)N2C[C@H](O)C[C@@H]2C(=O)N[C@@H](Cc2c[nH]c3ccccc23)C(=O)N[C@@H](Cc2ccc(O)cc2)C(=O)N[C@@H](CCC(=O)O)C(=O)N[C@H](C(=O)NCC(N)=O)CSCC(=O)N[C@@H](Cc2ccc(F)c(F)c2)C(=O)N(C)[C@@H](Cc2ccccc2)C(=O)N1C` [Example 9314] ({CH2CO}-[Phe(3,4-F2)][NMeF][NMeNle][d(cisHyp)]DV[NMeF]D[d(cisHyp)]WYECG-NH2; thioether N-13), for which the IC50 under setting [1] was 1 to 9.9 nM. On the same count and under the same terms, the same measure for `CCCC[C@H]1C(=O)N2C[C@H](O)C[C@@H]2C(=O)N[C@@H](CC(=O)O)C(=O)N[C@@H](C(C)C)C(=O)N(C)[C@@H](Cc2ccccc2)C(=O)N[C@@H](CCC(N)=O)C(=O)N2C[C@H](O)C[C@@H]2C(=O)N[C@@H](Cc2c[nH]c3ccccc23)C(=O)N[C@@H](Cc2ccc(O)cc2)C(=O)N[C@@H](CCC(=O)O)C(=O)N[C@H](C(=O)NCC(N)=O)CSCC(=O)N[C@@H](Cc2ccc(F)c(F)c2)C(=O)N(C)[C@@H](Cc2ccccc2)C(=O)N1C` [Example 9315] ({CH2CO}-[Phe(3,4-F2)][NMeF][NMeNle][d(cisHyp)]DV[NMeF]Q[d(cisHyp)]WYECG-NH2; thioether N-13): 10 to 99.9 nM; for `CCCC[C@H]1C(=O)N2C[C@H](O)C[C@@H]2C(=O)N[C@@H](CC(=O)O)C(=O)N[C@@H](C(C)C)C(=O)N(C)[C@@H](Cc2ccccc2)C(=O)N[C@@H](CC(N)=O)C(=O)N2C[C@H](O)C[C@@H]2C(=O)N[C@@H](Cc2c[nH]c3ccccc23)C(=O)NC(Cc2ccc(O)cc2)C(=O)N[C@@H](CCC(=O)O)C(=O)N[C@H](C(=O)NCC(N)=O)CSCC(=O)N[C@@H](Cc2ccc(F)c(F)c2)C(=O)N(C)[C@@H](Cc2ccccc2)C(=O)N1C` (some centres unmarked) [Example 9317] ({CH2CO}-[Phe(3,4-F2)][NMeF][NMeNle][d(cisHyp)]DV[NMeF]N[d(cisHyp)]W[ξY]ECG-NH2; thioether N-13): 1 to 9.9 nM; for `CCCC[C@H]1C(=O)N2C[C@H](O)C[C@@H]2C(=O)N[C@@H](CC(=O)O)C(=O)N[C@@H](C(C)C)C(=O)N(C)[C@@H](Cc2ccccc2)C(=O)N[C@@H](CCCCN)C(=O)N2C[C@H](O)C[C@@H]2C(=O)N[C@@H](Cc2c[nH]c3ccccc23)C(=O)N[C@@H](Cc2ccc(O)cc2)C(=O)N[C@@H](CC(C)C)C(=O)N[C@H](C(=O)NCC(N)=O)CSCC(=O)N[C@@H](Cc2ccc(F)c(F)c2)C(=O)N(C)[C@@H](Cc2ccccc2)C(=O)N1C` [Example 9318] ({CH2CO}-[Phe(3,4-F2)][NMeF][NMeNle][d(cisHyp)]DV[NMeF]K[d(cisHyp)]WYLCG-NH2; thioether N-13): 1 to 9.9 nM.

Take `CCCC[C@H]1C(=O)N2C[C@H](O)C[C@@H]2C(=O)N[C@@H](CC(=O)O)C(=O)N[C@@H](C(C)C)C(=O)N(C)[C@@H](Cc2ccccc2)C(=O)N[C@@H](CC(=O)O)C(=O)N2C[C@H](O)C[C@@H]2C(=O)N[C@@H](Cc2c[nH]c3ccccc23)C(=O)N[C@@H](Cc2ccc(O)cc2)C(=O)N[C@@H](CC(C)C)C(=O)N[C@H](C(=O)NCC(N)=O)CSCC(=O)N[C@@H](Cc2cc(F)c(F)c(F)c2)C(=O)N(C)[C@@H](Cc2ccccc2)C(=O)N1C` [Example 9319] ({CH2CO}-[Phe(3,4,5-F3)][NMeF][NMeNle][d(cisHyp)]DV[NMeF]D[d(cisHyp)]WYLCG-NH2; thioether N-13): the IC50 under setting [1] lay within 1 to 9.9 nM.

Regarding `CCCC[C@H]1C(=O)N2C[C@H](O)C[C@@H]2C(=O)N[C@@H](CC(=O)O)C(=O)N[C@@H](C(C)C)C(=O)N(C)[C@@H](Cc2ccccc2)C(=O)N[C@@H](CCC(N)=O)C(=O)N2C[C@H](O)C[C@@H]2C(=O)N[C@@H](Cc2c[nH]c3ccccc23)C(=O)N[C@@H](Cc2ccc(O)cc2)C(=O)N[C@@H](CC(C)C)C(=O)N[C@H](C(=O)NCC(N)=O)CSCC(=O)N[C@@H](Cc2cc(F)c(F)c(F)c2)C(=O)N(C)[C@@H](Cc2ccccc2)C(=O)N1C` [Example 9320] ({CH2CO}-[Phe(3,4,5-F3)][NMeF][NMeNle][d(cisHyp)]DV[NMeF]Q[d(cisHyp)]WYLCG-NH2; thioether N-13), the IC50 under setting [1] was 1 to 9.9 nM. Turning to `CCCC[C@H]1C(=O)N2C[C@@H](O)C[C@@H]2C(=O)N[C@@H](CC(=O)O)C(=O)N[C@@H](C(C)C)C(=O)N(C)[C@@H](Cc2ccccc2)C(=O)N[C@@H](CCC(=O)O)C(=O)N2CCOC[C@@H]2C(=O)N[C@@H](Cc2c[nH]c3ccccc23)C(=O)N[C@@H](Cc2ccc(O)cc2)C(=O)N[C@@H](CCCN)C(=O)N[C@H](C(=O)NCC(N)=O)CSCC(=O)N[C@@H](Cc2cc(F)c(F)c(F)c2)C(=O)N(C)[C@@H](Cc2ccccc2)C(=O)N1C` [Example 9321] ({CH2CO}-[Phe(3,4,5-F3)][NMeF][NMeNle][dHyp]DV[NMeF]E[X1]WY[Orn]CG-NH2; thioether N-13), the IC50 under setting [1] was 1 to 9.9 nM.
